{
  "source": "paper PMC4417150",
  "about": "“Selective inhibition of miR-21 by phage display screened peptide” (Nucleic Acids Research, 2015)",
  "note": "Peptide text beside a SMILES is read from it.",
  "data": [
    {"test_system": "MCF-7 cells", "test": "Quantitative uptake of FAM-conjugated peptide (flow cytometry)", "assay_type": "in vitro ADME", "conditions": "FAM-conjugated peptides 1, 5, 10 µM; MCF-7, serum free media, 6 h, 37°C; FACS; duplicate", "method": "Carboxyfluorescein (FAM)-conjugated peptide was added onto MCF-7 cells with ∼80% confluence in serum free media. Cells were then incubated at 37°C humidified incubator (5% CO2) for 6 h. Cells were washed twice with ice cold PBS containing 1mg/ml heparin, followed by one wash with trypan blue and two washes with ice cold PBS. Cells were trypsinised, followed by centrifugation at 700 g for 5 min at 4°C. Cell pellet was resuspended in ice cold PBS and FACS analysis was done in BD Accuri instrument. 10000 counts per sample was analyzed using BD Accuri C6 software.\nAs the peptide contains three proline residues, we reasoned that the peptide may have cell penetrating properties. To check the cell penetrating property, we FAM conjugated the peptides and monitored their uptake by flow cytometry.", "values": [
      {"compound": "CC(C)C[C@H](NC(=O)[C@H](C)N)C(=O)N[C@@H](Cc1c[nH]c2ccccc12)C(=O)N1CCC[C@H]1C(=O)N1CCC[C@H]1C(=O)N[C@@H](CC(N)=O)C(=O)N[C@@H](CC(C)C)C(=O)N[C@@H](Cc1c[nH]cn1)C(=O)N[C@@H](C)C(=O)N[C@@H](Cc1c[nH]c2ccccc12)C(=O)N[C@H](C(=O)N1CCC[C@H]1C(=O)O)C(C)C", "note": "[wild-type peptide] (H-ALWPPNLHAWVP-OH)", "cell penetrating potential (uptake)": "clearly indicated cell penetrating potential"},
      {"compound": "LPPAPWNWAHVL [scrambled mutant]", "cell penetrating potential (uptake)": "clearly indicated cell penetrating potential"},
      {"compound": "PVWAHLNPPWLA [reverse mutant]", "cell penetrating potential (uptake)": "clearly indicated cell penetrating potential"}
    ]}
  ]
}
